Measurements published in the NIST ThermoML archive (doi:10.1021/je1009619).

Assay: xn = mol fraction of the nth substance listed
Details: Liquid, Vibrating tube method

CC1=CC[C@H]2C[C@@H]1C2(C)C [(S)-2-pinene] + C=C(C)[C@H]1CC=C(C)CC1
mass density [kg/m3]
Details	x2 = 0	x2 = 0.0976	x2 = 0.1991	x2 = 0.2983	x2 = 0.3955	x2 = 0.5036	x2 = 0.5967	x2 = 0.7024	x2 = 0.8084	x2 = 0.906
328.15 K, 20000 kPa	846.7	845.1	843.4	841.8	840.2	838.4	837	835.3	833.5	832
328.15 K, 25000 kPa	850.4	848.7	847	845.2	843.6	841.9	840.4	838.6	836.9	835.4
328.15 K, 30000 kPa	854	852.3	850.6	848.8	847.2	845.4	843.9	842.1	840.4	838.7
328.15 K, 35000 kPa	857.5	855.8	854	852.3	850.6	848.8	847.3	845.5	843.7	841.9
328.15 K, 40000 kPa	861.1	859.4	857.5	855.8	854.1	852.1	850.6	848.8	847.1	845.3
343.15 K, 20000 kPa	835.9	834.4	832.8	831.2	829.6	827.9	826.5	824.8	823.1	821.6
343.15 K, 25000 kPa	839.7	838.1	836.5	834.9	833.4	831.7	830.2	828.4	826.8	825.2
343.15 K, 30000 kPa	843.8	842.1	840.4	838.8	837.1	–	–	–	–	–
